Reference: patent US20250270512A1, “ADDITIVE FOR UNDIFFERENTIATION MAINTAINING MEDIUM” (AJINOMOTO CO., INC., priority 2017, published 2025)
Entries after “also recorded” stand apart in the source; their conditions may differ.

How the values were obtained:
Assay type in all cases: cell-based
[1] = system: human induced pluripotent stem cells 201B7; assay: Proliferation promoting effect of L-tryptophan metabolites in mTeSR1, cell coating rate by IncuCyte, 201B7; details: mTeSR1 medium, final 50, 100, 200, 500, 1000 μM, 0-120 hr
Protocol: L-kynurenine (Sigma-Aldrich Co. LLC: […]) was added at a final concentration of 50, 100, 200, 500, 1000 μM to mTeSR1 medium and the proliferation promoting effect was examined using the prepared medium. Y-27632 was added at a final concentration of 10 μM for 2 days after seeding. As a basement membrane matrix, Matrigel (Japan Becton, Dickinson and Company) was applied on a 6 well plate and 20,000 cells were single cell seeded per well. Two days after the cell seeding, evaluation was performed using the medium free of Y-27632 and prepared as mentioned above. The time of L-kynurenine addition was taken as 0 and the cell coating rate was measured using IncuCyte at 0, 24, 48, 72, 96 and 120 hr later. […] Kynurenic acid (Sigma-Aldrich Co. LLC: […]) was added at a final concentration of 50, 100, 200, 500, 1000 μM to mTeSR1 medium and the proliferation promoting effect was examined using the prepared medium. Y-27632 was added at a final concentration of 10 μM for 2 days after seeding. As a basement membrane matrix, Matrigel (Japan Becton, Dickinson and Company) was applied on a 6 well plate and 20,000 cells were single cell seeded per well. […] The time of kynurenic acid addition was taken as 0 and the cell coating rate was measured using IncuCyte at 0, 24, 48, 72, 96 and 120 hr later.

[2] = system: human embryonic kidney cell line HEK293T cells; assay: Proliferation promoting effect of L-tryptophan, cell coating rate by IncuCyte, HEK293T; details: 293T; DMEM with 10% fetal bovine serum; final 44-1408 μM; 24-120 hr
Protocol: Next, the proliferation promoting effect of L-tryptophan was evaluated using human embryonic kidney cell line HEK293T cells. As the medium, DMEM medium (Thermo Fisher Scientific K. K.: 11965) added with 10% fetal bovine serum was used and culturing was performed under 5% CO2/37° C. conditions.
L-tryptophan (Sigma-Aldrich Co. LLC: T8941) was added at a given concentration to DMEM medium (Thermo Fisher Scientific K.K.: 11965) added with 10% fetal bovine serum, used for culture and the effect thereof was examined.
L-tryptophan (Sigma-Aldrich Co. LLC: T8941) was added at a final concentration of 44, 176, 352, 704, 1408 μM to DMEM medium (Thermo Fisher Scientific K.K.: 11965) added with 10% fetal bovine serum and the proliferation promoting effect of L-tryptophan was examined using the prepared medium. A 6 well plate was prepared and 10,000 cells were single cell seeded per well. The next day of cell seeding, evaluation was performed by replacing the medium with the medium prepared as mentioned above. The culture period was set to 6 days, the time of L-tryptophan addition was set to 0 and the cell coating rate was measured using IncuCyte at 24, 48, 72, 96 and 120 hr later.

[3] = system: human embryonic stem cells H9; assay: Proliferation promoting effect of L-tryptophan, cell coating rate by IncuCyte, H9; details: mTeSR1 medium, final 44-1408 μM, 24-120 hr
Protocol: (§1) Then, the proliferation promoting effect of L-tryptophan was evaluated using other strain 253G4 of human induced pluripotent stem cell (iPS cell) and human embryonic stem cell H9 strain. As the medium, mTeSR1 (STEM CELL Technologies Inc.: 05850) was used and culturing was performed under 5% CO2/37° C. conditions.
(§2) L-tryptophan (Sigma-Aldrich Co. LLC: T8941) was added to mTeSR1 medium (STEM CELL Technologies Inc.: 05850) at a given concentration, used for culture and the effect thereof was examined.
(§3) L-tryptophan (Sigma-Aldrich Co. LLC: T8941) was added at a final concentration of 44, 176, 352, 704, 1408 μM to mTeSR1 medium and the proliferation promoting effect of L-tryptophan was examined using the prepared medium. A 6 well plate coated with Matrigel (Japan Becton, Dickinson and Company) as a basement membrane matrix was prepared and 40,000 253G4 cells and 10,000 H9 cells were single cell seeded per well. The next day of cell seeding, evaluation was performed by replacing the medium with the medium prepared as mentioned above. The culture period was set to 6 days, the time of L-tryptophan addition was set to 0 and the cell coating rate was measured using IncuCyte at 24, 48, 72, 96 and 120 hr later. As the medium to be used when seeding, a medium without addition of Y-27632 at a final concentration of 10 μM was used and culturing was performed.

[4] = system: human induced pluripotent stem cells 201B7; assay: Proliferation promoting effect of L-tryptophan, cell coating rate by IncuCyte, 201B7; details: final 44-1408 μM, 24-120 hr after addition
Protocol: First, the proliferation promoting effect of L-tryptophan on induced pluripotent stem cells (iPS cells) was evaluated using 3 kinds of commercially available media. As the human iPS cell, 201B7 strain purchased from iPS Academia Japan, Inc. was used and cultured under the conditions of 5% CO2/37° C.
L-tryptophan (Sigma-Aldrich Co. LLC: T8941) was added to the media of Essential-8 (Life Technologies Inc.: A1517001), mTeSR1 (STEM CELL Technologies Inc.: 05850), TeSR2 (STEM CELL Technologies Inc.: 05860) at a given concentration, used for culture and the effect thereof was examined.
as §3, with “Essential-8, mTeSR1, TeSR2 media” for “mTeSR1 medium”, “media.” for “medium.”, “13,000” for “40,000 253G4 cells and 10,000 H9”, “using” for “by replacing the medium with”

[5] = system: human induced pluripotent stem cells 253G4; assay: Proliferation promoting effect of L-tryptophan, cell coating rate by IncuCyte, 253G4; details: mTeSR1 medium, final 44-1408 μM, 24-120 hr
Protocol: as §1, §2, §3

[6] = system: human iPS cell 201B7 strain; assay: Expression of undifferentiated marker after addition of high concentration of L-tryptophan; details: data not shown

O=C(O)c1cc(=O)c2ccccc2[nH]1 [kynurenic acid]
cell coating rate (proliferation promoting effect) [1]: showed a cell proliferation promoting effect in the kynurenic acid 50-500 μM addition group

NC(Cc1c[nH]c2ccccc12)C(=O)O [L-tryptophan, 2-amino-3-(indolyl)propionic acid]
cell coating rate (proliferation promoting effect) [2]: concentration-dependent proliferation promoting effect of L-tryptophan was not confirmed; also recorded: did not show an L-tryptophan concentration-dependent effect of promoting proliferation
cell coating rate (proliferation promoting effect) [3]: concentration-dependent proliferation promoting effect of L-tryptophan was also confirmed; also recorded: showed an L-tryptophan concentration-dependent effect of promoting proliferation
cell coating rate (proliferation promoting effect) ([4]; Essential-8 medium): showed a proliferation promoting effect in an L-tryptophan concentration dependent manner; also recorded: showed an L-tryptophan concentration-dependent effect of promoting proliferation
cell coating rate (proliferation promoting effect) ([4]; TeSR2 medium): showed a proliferation promoting effect in an L-tryptophan concentration dependent manner; also recorded: showed an L-tryptophan concentration-dependent effect of promoting proliferation
cell coating rate (proliferation promoting effect) ([4]; mTeSR1 medium): showed a proliferation promoting effect in an L-tryptophan concentration dependent manner; also recorded: showed an L-tryptophan concentration-dependent effect of promoting proliferation
cell coating rate (proliferation promoting effect) [5]: concentration-dependent proliferation promoting effect of L-tryptophan was also confirmed; also recorded: showed an L-tryptophan concentration-dependent effect of promoting proliferation
expression of undifferentiated marker (OCT, Nanog, alkaline phosphatase) [6]: not influenced

Nc1ccccc1C(=O)C[C@H](N)C(=O)O [L-kynurenine]
cell coating rate (proliferation promoting effect) [1]: showed a cell proliferation promoting effect in the L-kynurenine 50-500 μM addition group
